Experimental data from US6627246B2, “Process for coating stents and other medical devices using super-critical carbon dioxide” (Ortho-McNeil Pharmaceutical, Inc., priority 2000, dated 2003).

Legend:
[1] = In-vitro release study of RWJ-53308 from PLGA coated stent; format: physicochemical; details: from PLGA coated stent in 2 mL water
Procedure: A coated stent obtained in step b was placed in a tube with 2 mL of water. A 1 mL. aliquot was taken at the 1 hr and at the 17.5 hour time point. This 1 mL. aliquot was replaced with fresh water at each sampling. The sampled aliquot was analyzed by reading UV absorbance at 261 nm. The drug concentration was calculated by comparing the absorbance of a standard solution containing 147 μg/mL aqueous solution of RWJ-53308.
It was observed that approx. 66 ug of RWJ-53308 was released at 1 hour and a cumulative amount of approx. 134 ug was released at 17.5 hours as shown in FIG. 1.

[2] = Determination of RWJ-53308 on the PLGA coated stent (24 h water maceration, UV 261 nm); format: physicochemical; details: macerated 24 hours in 2 mL water, UV absorbance 261 nm
Procedure: A coated stent obtained in step b above was placed in a tube with 2 mL. water. The coated stent was allowed to macerate for 24 hours. The aqueous supernatant was drained, filtered and UV absorbance was read at 261 nm. The amount of RWJ-53308 on the stent was calculated by comparing the absorbance value of a standard solution containing 147 μg/mL solution of RWJ-53308. Thus the supernatant obtained by extracting the drug from the PLGA coated stent contained 105 μg of RWJ-53308.

amount of RWJ-53308 released ([1]; at 1 hour): approx. 66 ug
cumulative amount of RWJ-53308 released ([1]; at 17.5 hours): approx. 134 ug
amount of RWJ-53308 in supernatant extracted from PLGA coated stent [2]: 105 µg
Compound: O=C(O)C[C@H](NC(=O)[C@@H]1CCCN(C(=O)CCC2CCNCC2)C1)c1cccnc1 [RWJ-53308, 3-Pyridinepropanoic acid, b-[[[(3R)-1-[1-oxo-3-(4-piperidinyl)propyl]-3-piperidinyl]carbonyl]amino]-, (bS)-(9CI)]
